Several values for one entry are separate records, joined by “and”; a condition that tells them apart may be missing. Identical values can stand only once. Inconclusive results and toxic doses are left out. The calls were made as follows: active = survival T/C of 150% or more; inactive = T/C below 125% in these data.
Test system: CD2F1 mice, L1210 leukemia ip, survival T/C
Test: NCI In Vivo Anticancer Drug Screen. Data for tumor model L1210 Leukemia (intraperitoneal) in CD2F1 (CDF1) mice
Conditions: higher = longer survival
In short: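 Ratio T/C, where T is the treated-group value and C the vehicle-dosed control value, from mice implanted with a transplantable tumor.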

[1] = endpoint: mean survival time, dose: 200.0 mg/kg/injection, schedule: Q01DX009 (ip), vehicle: saline with Tween-80
[2] = endpoint: mean survival time, dose: 12.5 mg/kg/injection, schedule: Q01DX009 (ip), vehicle: water
[3] = endpoint: mean survival time, dose: 25.0 mg/kg/injection, schedule: Q01DX009 (ip), vehicle: water
[4] = endpoint: mean survival time, dose: 50.0 mg/kg/injection, schedule: Q01DX009 (ip), vehicle: water
[5] = endpoint: mean survival time, dose: 100.0 mg/kg/injection, schedule: Q01DX009 (ip), vehicle: water
[6] = endpoint: mean survival time, dose: 200.0 mg/kg/injection, schedule: Q01DX009 (ip), vehicle: water
[7] = endpoint: mean survival time, dose: 100.0 mg/kg/injection, schedule: Q01DX001 (ip), vehicle: saline with Tween-80
[8] = endpoint: mean survival time, dose: 200.0 mg/kg/injection, schedule: Q01DX001 (ip), vehicle: saline with Tween-80
[9] = endpoint: mean survival time, dose: 400.0 mg/kg/injection, schedule: Q01DX001 (ip), vehicle: saline with Tween-80
[10] = endpoint: mean survival time, dose: 100.0 mg/kg/injection, schedule: Q01DX001 (ip), vehicle: saline
[11] = endpoint: mean survival time, dose: 200.0 mg/kg/injection, schedule: Q01DX001 (ip), vehicle: saline
[12] = endpoint: mean survival time, dose: 400.0 mg/kg/injection, schedule: Q01DX001 (ip), vehicle: saline
[13] = endpoint: mean survival time, dose: 25.0 mg/kg/injection, schedule: Q04DX002 (ip), vehicle: saline with Tween-80
[14] = endpoint: mean survival time, dose: 50.0 mg/kg/injection, schedule: Q04DX002 (ip), vehicle: saline with Tween-80
[15] = endpoint: mean survival time, dose: 100.0 mg/kg/injection, schedule: Q04DX002 (ip), vehicle: saline with Tween-80
[16] = endpoint: mean survival time, dose: 200.0 mg/kg/injection, schedule: Q04DX002 (ip), vehicle: saline with Tween-80
[17] = endpoint: mean survival time, dose: 400.0 mg/kg/injection, schedule: Q04DX002 (ip), vehicle: saline with Tween-80
[18] = endpoint: mean survival time, dose: 12.5 mg/kg/injection, schedule: Q01DX009 (ip), vehicle: saline with Tween-80
[19] = endpoint: mean survival time, dose: 25.0 mg/kg/injection, schedule: Q01DX009 (ip), vehicle: saline with Tween-80
[20] = endpoint: mean survival time, dose: 50.0 mg/kg/injection, schedule: Q01DX009 (ip), vehicle: saline with Tween-80

Measured: T/C

O=C(C#Cc1ccccc1)c1ccccc1
inactive: endpoint: mean survival time, dose: 3.12 mg/kg/injection, schedule: Q01DX009 (ip), vehicle: Klucel (hydroxypropylcellulose) (HPC) 86 % of control and 98 % of control | endpoint: mean survival time, dose: 6.25 mg/kg/injection, schedule: Q01DX009 (ip), vehicle: Klucel (hydroxypropylcellulose) (HPC) 92 % of control and 97 % of control | endpoint: mean survival time, dose: 12.5 mg/kg/injection, schedule: Q01DX009 (ip), vehicle: Klucel (hydroxypropylcellulose) (HPC) 92 % of control and 104 % of control | endpoint: mean survival time, dose: 25.0 mg/kg/injection, schedule: Q01DX009 (ip), vehicle: Klucel (hydroxypropylcellulose) (HPC) 86 % of control and 107 % of control | endpoint: mean survival time, dose: 50.0 mg/kg/injection, schedule: Q01DX009 (ip), vehicle: Klucel (hydroxypropylcellulose) (HPC) 89 % of control

O=C1CNC(=O)N1c1cccc(Cl)c1
inactive: endpoint: mean survival time, dose: 100.0 mg/kg/injection, schedule: Q01DX009 (ip), vehicle: saline with Tween-80 96 % of control | [1] 92 % of control

O=C1CC2=C(CC(O)=CC=C2)C(=O)O1
inactive: endpoint: mean survival time, dose: 100.0 mg/kg/injection, schedule: Q01DX009 (ip), vehicle: saline 101 % of control | endpoint: mean survival time, dose: 200.0 mg/kg/injection, schedule: Q01DX009 (ip), vehicle: saline 93 % of control

CC(=O)OCC1CCN2CCCC12 (stereo not drawn)
inactive: [2] 101 % of control | [3] 96 % of control | [4] 98 % of control | [5] 101 % of control | [6] 101 % of control

CC(=O)OCCCOC(C)=O
inactive: [7] 93 % of control | [8] 112 % of control | [9] 101 % of control

CC(=O)NCc1cccc([N+](=O)[O-])c1
inactive: endpoint: mean survival time, dose: 25.0 mg/kg/injection, schedule: Q01DX005 (ip), vehicle: suspension in saline 97 % of control | endpoint: mean survival time, dose: 50.0 mg/kg/injection, schedule: Q01DX005 (ip), vehicle: suspension in saline 106 % of control | endpoint: mean survival time, dose: 100.0 mg/kg/injection, schedule: Q01DX005 (ip), vehicle: suspension in saline 105 % of control | endpoint: mean survival time, dose: 200.0 mg/kg/injection, schedule: Q01DX005 (ip), vehicle: suspension in saline 95 % of control | endpoint: mean survival time, dose: 400.0 mg/kg/injection, schedule: Q01DX005 (ip), vehicle: suspension in saline 95 % of control

O=c1c(F)cn(-c2ccco2)c(=O)n1-c1ccco1
inactive: endpoint: mean survival time, dose: 200.0 mg/kg/injection, schedule: Q04DX003 (ip), vehicle: saline with Tween-80 98 % of control | endpoint: mean survival time, dose: 400.0 mg/kg/injection, schedule: Q04DX003 (ip), vehicle: saline with Tween-80 102 % of control

CCCCN(CCCC)C(=O)Nc1ccccc1
inactive: [10] 100 % of control | [11] 100 % of control | [12] 98 % of control

O=C1CSC1=C(c1ccccc1)c1ccccc1
inactive: endpoint: mean survival time, dose: 12.5 mg/kg/injection, schedule: Q04DX002 (ip), vehicle: saline with Tween-80 94 % of control | [13] 94 % of control | [14] 94 % of control

c1ccc(CN=NNc2ccccc2)cc1
inactive: endpoint: mean survival time, dose: 75.0 mg/kg/injection, schedule: Q01DX001 (ip), vehicle: saline 94 % of control | endpoint: mean survival time, dose: 150.0 mg/kg/injection, schedule: Q01DX001 (ip), vehicle: saline 100 % of control | endpoint: mean survival time, dose: 300.0 mg/kg/injection, schedule: Q01DX001 (ip), vehicle: saline 103 % of control

COc1ccccc1NC(=O)OCC(Cl)(Cl)Cl
inactive: [15] 103 % of control | [16] 100 % of control | [17] 95 % of control

O=C(C1CCCCC1)C1CCC2(CCCCC2)CC1
inactive: endpoint: mean survival time, dose: 12.5 mg/kg/injection, schedule: Q01DX009 (ip), vehicle: other 92 % of control | endpoint: mean survival time, dose: 25.0 mg/kg/injection, schedule: Q01DX009 (ip), vehicle: other 87 % of control | endpoint: mean survival time, dose: 50.0 mg/kg/injection, schedule: Q01DX009 (ip), vehicle: other 93 % of control | endpoint: mean survival time, dose: 100.0 mg/kg/injection, schedule: Q01DX009 (ip), vehicle: other 92 % of control | endpoint: mean survival time, dose: 200.0 mg/kg/injection, schedule: Q01DX009 (ip), vehicle: other 95 % of control

COc1cc(NC(=O)Nc2ccccc2OC)c(OC)cc1Cl
inactive: [15] 90 % of control | [16] 93 % of control | [17] 107 % of control

COc1ccc(O)cc1
inactive: endpoint: median survival time, dose: 12.5 mg/kg/injection, schedule: Q01DX005 (ip), vehicle: saline with Tween-80 98 % of control | endpoint: median survival time, dose: 25.0 mg/kg/injection, schedule: Q01DX005 (ip), vehicle: saline with Tween-80 98 % of control | endpoint: median survival time, dose: 50.0 mg/kg/injection, schedule: Q01DX005 (ip), vehicle: saline with Tween-80 95 % of control | endpoint: median survival time, dose: 100.0 mg/kg/injection, schedule: Q01DX005 (ip), vehicle: saline with Tween-80 103 % of control | endpoint: median survival time, dose: 200.0 mg/kg/injection, schedule: Q01DX005 (ip), vehicle: saline with Tween-80 116 % of control

O=C(Nc1cccc([N+](=O)[O-])c1)N(c1ccccc1)c1ccccc1
inactive: [10] 88 % of control | [11] 94 % of control | [12] 93 % of control

O=C(CNC(=O)NCc1ccco1)N/N=C/c1cc(Br)ccc1O
inactive: [18] 94 % of control | [19] 94 % of control | [20] 96 % of control | [1] 100 % of control

C=C1CC(Cc2ccccc2)OC1=O (stereo not drawn)
inactive: endpoint: mean survival time, dose: 25.0 mg/kg/injection, schedule: Q01DX001 (ip), vehicle: saline with Tween-80 96 % of control | endpoint: mean survival time, dose: 50.0 mg/kg/injection, schedule: Q01DX001 (ip), vehicle: saline with Tween-80 101 % of control | [7] 101 % of control

O=c1cc(O)c(Cl)nn1C1OC(CO)C(O)C1O (stereo not drawn)
inactive: [2] 103 % of control | [3] 97 % of control | [4] 100 % of control | [5] 100 % of control | [6] 95 % of control | endpoint: mean survival time, dose: 400.0 mg/kg/injection, schedule: Q01DX009 (ip), vehicle: water 91 % of control

C1CNC(SCCOCCOCCSC2=NCCN2)=N1
inactive: endpoint: mean survival time, dose: 12.5 mg/kg/injection, schedule: Q01DX009 (ip), vehicle: saline 97 % of control | endpoint: mean survival time, dose: 25.0 mg/kg/injection, schedule: Q01DX009 (ip), vehicle: saline 97 % of control | endpoint: mean survival time, dose: 50.0 mg/kg/injection, schedule: Q01DX009 (ip), vehicle: saline 100 % of control

C=C(Cc1ccccc1)C(=O)O
inactive: [13] 92 % of control | [14] 92 % of control | [15] 95 % of control

COc1cc(/C=N\NC(=O)CNC(=O)Nc2cccc(Cl)c2)ccc1O
inactive: [18] 91 % of control | [19] 91 % of control | [20] 91 % of control

CCS(=O)(=O)C(C)S(=O)(=O)CC
inactive: [7] 100 % of control | [8] 107 % of control | [9] 104 % of control

O=C(CN1CCCCC1)NC(=O)NC1=C(N2CCCCC2)C(=O)c2ccccc2C1=O
inactive: endpoint: mean survival time, dose: 100.0 mg/kg/injection, schedule: Q01DX001 (ip), vehicle: other 97 % of control | endpoint: mean survival time, dose: 200.0 mg/kg/injection, schedule: Q01DX001 (ip), vehicle: other 101 % of control | endpoint: mean survival time, dose: 400.0 mg/kg/injection, schedule: Q01DX001 (ip), vehicle: other 95 % of control

O=S(=O)(Cl)c1cccc2cc3ccccc3cc12
inactive: endpoint: mean survival time, dose: 100.0 mg/kg/injection, schedule: Q04DX003 (ip), vehicle: saline 109 % of control | endpoint: mean survival time, dose: 200.0 mg/kg/injection, schedule: Q04DX003 (ip), vehicle: saline 97 % of control | endpoint: mean survival time, dose: 400.0 mg/kg/injection, schedule: Q04DX003 (ip), vehicle: saline 103 % of control
